Data as given in ChEMBL document CHEMBL1122964, “Conformational analysis and active site modelling of angiotensin-converting enzyme inhibitors” (J Med Chem, 1985).
pIC50, pKi: −log10 of the molar value. Where a SMILES comes first, the peptide text is derived from it. The star is where a group is joined. Bz = O=C(c1ccccc1)*

Assays:
[1] = molecular target: T1, Angiotensin-converting enzyme (Homo sapiens, UniProt P12821); experiment: Compound was evaluated for the inhibition of Angiotensin I converting enzyme
[2] = molecular target: T1, Angiotensin-converting enzyme; experiment: Inhibition of Angiotensin I converting enzyme; conditions: read-out: I50

T1 sequence (P12821 whole entry): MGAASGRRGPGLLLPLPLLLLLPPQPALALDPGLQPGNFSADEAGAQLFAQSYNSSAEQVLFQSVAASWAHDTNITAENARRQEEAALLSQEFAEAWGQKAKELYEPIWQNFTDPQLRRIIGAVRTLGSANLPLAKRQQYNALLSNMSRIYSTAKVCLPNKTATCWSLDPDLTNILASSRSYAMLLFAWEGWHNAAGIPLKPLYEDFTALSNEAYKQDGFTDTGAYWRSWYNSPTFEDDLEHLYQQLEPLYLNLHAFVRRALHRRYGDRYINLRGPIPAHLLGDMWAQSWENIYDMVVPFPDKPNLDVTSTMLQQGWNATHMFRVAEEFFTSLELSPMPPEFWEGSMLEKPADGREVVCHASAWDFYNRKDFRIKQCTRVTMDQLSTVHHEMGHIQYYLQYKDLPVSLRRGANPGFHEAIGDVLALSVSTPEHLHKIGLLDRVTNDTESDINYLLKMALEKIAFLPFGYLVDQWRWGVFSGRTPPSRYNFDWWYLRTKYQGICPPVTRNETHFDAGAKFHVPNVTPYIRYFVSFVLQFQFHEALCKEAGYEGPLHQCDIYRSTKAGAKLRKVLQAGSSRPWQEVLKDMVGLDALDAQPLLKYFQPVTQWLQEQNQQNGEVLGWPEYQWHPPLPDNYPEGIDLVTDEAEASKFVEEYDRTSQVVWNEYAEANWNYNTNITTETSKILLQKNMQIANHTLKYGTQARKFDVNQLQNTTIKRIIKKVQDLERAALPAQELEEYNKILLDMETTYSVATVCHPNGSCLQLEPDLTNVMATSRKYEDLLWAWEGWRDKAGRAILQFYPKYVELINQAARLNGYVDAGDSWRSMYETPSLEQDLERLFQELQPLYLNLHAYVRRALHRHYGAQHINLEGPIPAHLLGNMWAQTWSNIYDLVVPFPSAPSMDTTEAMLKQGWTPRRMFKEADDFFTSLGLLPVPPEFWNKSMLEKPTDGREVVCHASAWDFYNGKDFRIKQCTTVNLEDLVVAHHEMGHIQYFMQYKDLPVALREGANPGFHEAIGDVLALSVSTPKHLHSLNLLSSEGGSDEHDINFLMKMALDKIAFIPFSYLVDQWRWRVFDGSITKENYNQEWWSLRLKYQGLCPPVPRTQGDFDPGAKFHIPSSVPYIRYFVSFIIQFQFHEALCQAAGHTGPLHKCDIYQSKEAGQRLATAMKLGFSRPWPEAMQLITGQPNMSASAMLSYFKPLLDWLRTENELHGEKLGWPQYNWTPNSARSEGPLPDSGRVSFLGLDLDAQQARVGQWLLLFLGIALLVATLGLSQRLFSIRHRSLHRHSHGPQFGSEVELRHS

pIC50 [2]	SMILES	pKi [1]
	C[C@H](NP(=O)(O)CCc1ccccc1)C(=O)N1CCC[C@H]1C(=O)O	9.30
8.52	O=C(O)CN1C(=O)[C@@H](NC(CCc2ccccc2)C(=O)O)CSc2ccccc21 (stereo partly specified)	
8.49	C[C@H](NC(=O)[C@H](Cc1ccccc1)NC(=O)c1ccccc1)C(=O)N1CCC[C@H]1C(=O)O (Bz-Phe-Ala-Pro-OH)	
6.70	O=C(O)[C@H]1CCCN1C(=O)CCS	
	C[C@@H](NP(=O)(O)O)C(=O)N1CCC[C@H]1C(=O)O	8.85
2.74	O=C(O)[C@@H]1CCCN1C(=O)CCS	
